In one test the test system is P-388. As to the kind of experiment: Inhibition of cell growth by counting cells, P-388. The format is cell-based, mouse. To be noted: Mus musculus, P388, 72 h, read-out: IC50 (molar) P-388. Here is the method: (§1) 1°.—Inhibition of Cell Growth by Counting Cells.
(§2) This form of the assay employs 24 well multidishes of 16 mm diameter (Bergeron, 1984; Schroeder, 1981). The tumor cell lines employed are: P-388 (ATCC CCL 46), suspension culture of a lymphoid neoplasm from a DBA/2 mouse; A-549 (ATCC CCL 185), monolayer culture of a human lung carcinoma; HT-29 (ATCC HTB-38), monolayer culture of a human colon carcinoma; MEL-28 (ATCC HTB-72), monolayer culture of a human melanoma and DU-145 (ATCC HTB-81), monolayer culture of a human prostate carcinoma.
(§3) Cells were maintained, in logarithmic phase of growth in Eagle's Minimum Essential Medium, with Earle's Balanced Salts, with non-essential amino acids, with 2.0 mM L-Glutamine, without sodium bicarbonate (EMEM/neaa), supplemented with 10% Fetal Calf Serum (FCS), 10^−2 M. sodium bicarbonate and 0.1 U/l penicillin G+0.1 g/l streptomycin sulfate. For the experiments, cells are harvested from subconfluent cultures using trypsin and resuspended in fresh medium before plating.
(§4) P-388 cells were seeded into 16 mm diameter wells at 1×10^4 cells per well in 1 ml aliquots of EMEM 5% FCS containing different concentrations of the sample to be tested. A separate set of cultures without drug was seeded as control of growth, to ensure that cells remained in exponential phase of growth. All determinations are carrying out in duplicate.
(§5) For quantifying the activity, after the incubation time, cells are trypsinized and counted in a Coulter Counter ZM. All counts (net cells per well), represent the average of duplicate wells. % G, percent of growth relative to cultures without drug. The results of these assays are used to generate dose-response curves from which more precise IC50 values are determined (sample concentration which produces 50% cell growth inhibition).
(§6) Obtained results may predict the usefulness of a certain drug as a potential cancer treatment. For this technique, compounds which show IC50 values smaller than 1 μg/ml are selected to continue with further studies. IC50's data allow to predict that not only could a drug be cystostatic, but also it could have a potential in terms of tumor reduction.

For the next test, the system named is A-549. As to the kind of experiment: Inhibition of cell growth by counting cells, A-549. The format is cell-based, human. To be noted: Homo sapiens, A549, 72 h, read-out: IC50 (molar) A-549. The essentials: (§7)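 Cells were seeded at 1×10^4 per well in EMEM with 5% FCS containing test sample and incubated 3 days at 37 °C, 5% CO2, in duplicate. Cells were then trypsinized and Coulter-counted, and growth was expressed relative to drug-free controls. IC50 (50% growth inhibition) was taken from dose-response curves.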

The subject of another test is HT-29. As to the kind of experiment: Inhibition of cell growth by counting cells, HT-29. In kind it is cell-based, human. To be noted: Homo sapiens, HT-29, 72 h, read-out: IC50 (molar) HT-29. The essentials:
as §7

The next test relates to MEL-28. In words: Inhibition of cell growth by counting cells, MEL-28. The format is cell-based, human. To be noted: Homo sapiens, SK-MEL-28, 72 h, read-out: IC50 (molar) MEL-28. How it is done:
as §1, §2, §3
as §4, with “A-549, HT-29, MEL-28 and DU-145” for “P-388”, “duplicate. After three days of incubation at 37° C., 5% CO2 in a 98% humid atmosphere cells were stained with 0.1% crystal violet. An approximately IC50 was determined by comparing the growth in wells with drug to the growth in wells control.” for “duplicate.”
as §5, §6

Structures are written as SMILES. Like-named read-outs stand apart in the source and are kept apart here.

Take `CCOc1cc2c(cc1OC)[C@@]1(CS[C@@H]3c4c(OC(C)=O)c(C)c5c(c4[C@H](COC1=O)N1C3[C@H]3c4c(cc(C)c(OC)c4O)C[C@@H]([C@@H]1C#N)N3C)OCO5)NCC2` (stereo partly shown) [Compound 37]: the IC50 with P-388 (three days of incubation), in the test on A-549 (three days of incubation), in the test with HT-29 (three days of incubation) and with MEL-28 (three days of incubation) was 0.125 nM throughout.

Take `CCCOc1cc2c(cc1OC)[C@@]1(CS[C@@H]3c4c(OC(C)=O)c(C)c5c(c4[C@H](COC1=O)N1C3[C@H]3c4c(cc(C)c(OC)c4O)C[C@@H]([C@@H]1C#N)N3C)OCO5)NCC2` (stereo partly shown) [Compound 39]: the IC50 in the test with P-388 (three days of incubation), in the test on A-549 (three days of incubation), in the test on HT-29 (three days of incubation) and in the test on MEL-28 (three days of incubation) was 0.616 nM in each case.

Take `COc1cc2c(cc1O)CCN[C@]21CS[C@@H]2c3c(OC(C)=O)c(C)c4c(c3[C@H](COC1=O)N1C2[C@H]2c3c(cc(C)c(OC)c3OC(C)=O)C[C@@H]([C@@H]1C#N)N2C)OCO4` (stereo partly shown) [Compound 51]: the IC50 with P-388 (three days of incubation) was determined as 0.616 nM; with A-549 (three days of incubation), 1.23 nM; in the test with HT-29 (three days of incubation), 1.23 nM; with MEL-28 (three days of incubation) it was 1.23 nM.

Take `COc1cc2c(cc1OP(=O)(OCc1ccccc1)OCc1ccccc1)CCN[C@]21CS[C@@H]2c3c(OC(C)=O)c(C)c4c(c3[C@H](COC1=O)N1C2[C@H]2c3c(cc(C)c(OC)c3O)C[C@@H]([C@@H]1C#N)N2C)OCO4` (stereo partly shown) [Compound 53]: the IC50 was determined as 4.85 nM with P-388, 9.71 nM in the test with A-549, 9.71 nM with HT-29 and 9.71 nM with MEL-28.

`COc1cc2c(cc1O)CCN(C)[C@]21CS[C@@H]2c3c(OC(C)=O)c(C)c4c(c3[C@H](COC1=O)N1C2[C@H]2c3c(cc(C)c(OC)c3O)C[C@@H]([C@@H]1C#N)N2C)OCO4` (stereo partly shown) [Compound 54]: the IC50 with P-388 (three days of incubation), in the test with A-549 (three days of incubation), in the test on HT-29 (three days of incubation) and in the test on MEL-28 (three days of incubation) was 0.128 nM in each case.

With `CCCN1CCc2cc(O)c(OC)cc2[C@@]12CS[C@@H]1c3c(OC(C)=O)c(C)c4c(c3[C@H](COC2=O)N2C1[C@H]1c3c(cc(C)c(OC)c3O)C[C@@H]([C@@H]2C#N)N1C)OCO4` (stereo partly shown) [Compound 56], the IC50 with P-388 (three days of incubation), in the test on A-549 (three days of incubation), in the test on HT-29 (three days of incubation) and with MEL-28 (three days of incubation) was 0.123 nM each time.

Turning to `COc1cc2c(cc1OC(C)=O)CCN[C@]21CS[C@@H]2c3c(OC(C)=O)c(C)c4c(c3[C@H](COC1=O)N1C2[C@H]2c3c(cc(C)c(OC)c3OC(C)=O)C[C@@H]([C@@H]1O)N2C)OCO4` (stereo partly shown) [Compound 80], the IC50 is 2.96 nM in the test on P-388 (three days of incubation), 5.92 nM in the test on A-549 (three days of incubation), 5.92 nM with HT-29 (three days of incubation) and 5.92 nM in the test on MEL-28 (three days of incubation).

Regarding `COc1cc2c(cc1O)CCN[C@]21CS[C@@H]2c3c(OC(C)=O)c(C)c4c(c3[C@H](COC1=O)N1C2[C@H]2c3c(cc(C)c(OC)c3OC(C)=O)C[C@@H]([C@@H]1O)N2C)OCO4` (stereo partly shown) [Compound 96], the IC50 in the test with P-388 (three days of incubation), with A-549 (three days of incubation), in the test with HT-29 (three days of incubation) and with MEL-28 (three days of incubation) was 1.25 nM each time.

Turning to `COc1cc2c(cc1O)CCN[C@]21CS[C@@H]2c3c(O)c(C)c4c(c3[C@H](COC1=O)N1C2[C@@H]2N[C@@H](Cc3cc(C)c(OC)c(O)c32)[C@@H]1C#N)OCO4` (stereo partly shown) [Compound 184], the IC50 in the test with P-388 (three days of incubation), in the test with A-549 (three days of incubation), in the test on HT-29 (three days of incubation) and in the test on MEL-28 (three days of incubation) was 0.699 nM in each case.

On to `COc1cc2c(cc1O)CCN(C)[C@]21CS[C@@H]2c3c(OC(C)=O)c(C)c4c(c3[C@H](COC1=O)N1C[C@@H]3Cc5cc(C)c(OC)c(O)c5[C@H](C21)N3C)OCO4` (stereo partly shown) [Compound 185], for which the IC50 in the test with P-388 (three days of incubation), in the test with A-549 (three days of incubation), in the test on HT-29 (three days of incubation) and with MEL-28 (three days of incubation) was 13.2 nM each time.

As to `COc1cc2c(cc1O)CCN[C@]21CS[C@@H]2c3c(OC(C)=O)c(C)c4c(c3[C@H](COC1=O)N1C2[C@@H]2N[C@@H](Cc3cc(C)c(OC)c(O)c32)[C@@H]1C#N)OCO4` (stereo partly shown) [Compound 186], the IC50 in the test with P-388 (three days of incubation), with A-549 (three days of incubation), in the test on HT-29 (three days of incubation) and in the test on MEL-28 (three days of incubation) was 0.159 nM in each case.

`C=CCOC(=O)Oc1cc2c(cc1OC)[C@@]1(CS[C@@H]3c4c(OC(C)=O)c(C)c5c(c4[C@H](COC1=O)N1C3[C@H]3c4c(cc(C)c(OC)c4O)C[C@@H]([C@@H]1C#N)N3C(=O)OCC=C)OCO5)NCC2` (stereo partly shown) [Compound 187]: the IC50 in the test with P-388 (three days of incubation), in the test on A-549 (three days of incubation), in the test with HT-29 (three days of incubation) and with MEL-28 (three days of incubation) was 1.08 nM each time.

`COc1cc2c(cc1O)CCN[C@]21CS[C@@H]2c3c(OC(C)=O)c(C)c4c(c3[C@H](COC1=O)N1C2[C@H]2c3c(cc(C)c(OC)c3O)C[C@@H]([C@@H]1C#N)N2C(=O)OC(C)(C)C)OCO4` (stereo partly shown) [Compound 188]: the IC50 in the test with P-388 (three days of incubation), in the test with A-549 (three days of incubation), with HT-29 (three days of incubation) and with MEL-28 (three days of incubation) was 0.583 nM each time.

`COc1cc2c(cc1OC(=O)OC(C)(C)C)CCN[C@]21CS[C@@H]2c3c(OC(C)=O)c(C)c4c(c3[C@H](COC1=O)N1C2[C@@H]2N[C@@H](Cc3cc(C)c(OC)c(O)c32)[C@@H]1C#N)OCO4` (stereo partly shown) [Compound 189]: the IC50 with P-388 (three days of incubation), with A-549 (three days of incubation), in the test on HT-29 (three days of incubation) and with MEL-28 (three days of incubation) was 0.583 nM each time.

`COc1cc2c(cc1OC(=O)OC(C)(C)C)CCN[C@]21CS[C@@H]2c3c(OC(C)=O)c(C)c4c(c3[C@H](COC1=O)N1C2[C@H]2c3c(cc(C)c(OC)c3O)C[C@@H]([C@@H]1C#N)N2C(=O)OC(C)(C)C)OCO4` (stereo partly shown) [Compound 190]: the IC50 in the test with P-388 (three days of incubation), in the test with A-549 (three days of incubation), with HT-29 (three days of incubation) and in the test on MEL-28 (three days of incubation) was 5.22 nM in each case.

Take `C=CCOc1c(OC)c(C)cc2c1[C@H]1N[C@@H](C2)[C@H](C#N)N2C1[C@@H]1SC[C@]3(NCCc4cc(O)c(OC)cc43)C(=O)OC[C@H]2c2c3c(c(C)c(OC(C)=O)c21)OCO3` (stereo partly shown) [Compound 201]: the IC50 was determined as 12.6 nM in the test with P-388 (three days of incubation), 15.7 nM with A-549 (three days of incubation), 15.7 nM with HT-29 (three days of incubation) and 15.7 nM in the test with MEL-28 (three days of incubation).

A word on the IC50: it is the concentration needed to halve the response being measured.

The values above are taken from patent publication US7759345B2, “Antitumoral derivatives of ET-743” (priority 2001, dated 2010).
